Reference: patent publication US11787833B2, “Modified cyclic dinucleoside compounds as sting modulators” (ALIGOS THERAPEUTICS, INC., priority 2019, dated 2023)
Like-named read-outs stand apart in the source and are kept apart here.

Key:
[1] = molecular target: T1, 293T-Dual hSTING-R232 cells (Homo sapiens, UniProt Q86WV6, H232R); assay: 293T R232 cell reporter assay (HEK 293T reporter assay); assay type: cell-based; conditions: digitonin 10 μg/mL, 30 min exposure, 20 h incubation
T1 construct: host or cells: 293T-Dual hSTING-R232 cells (HEK 293T)
T1 sequence (Q86WV6 whole entry H232R): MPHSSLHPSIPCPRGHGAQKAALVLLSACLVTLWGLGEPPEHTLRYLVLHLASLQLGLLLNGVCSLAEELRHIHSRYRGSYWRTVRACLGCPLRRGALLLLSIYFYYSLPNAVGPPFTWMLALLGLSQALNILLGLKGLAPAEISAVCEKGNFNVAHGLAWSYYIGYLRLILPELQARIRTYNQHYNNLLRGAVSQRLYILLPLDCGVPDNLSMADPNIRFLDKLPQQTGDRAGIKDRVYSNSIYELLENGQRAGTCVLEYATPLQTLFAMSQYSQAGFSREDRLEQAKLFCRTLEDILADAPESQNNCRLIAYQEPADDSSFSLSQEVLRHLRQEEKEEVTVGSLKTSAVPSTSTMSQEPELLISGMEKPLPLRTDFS
Protocol: 293T-Dual hSTING-R232 cells (Invivogen) were plated in 96 well plates at a density of 5×10^4 cells per well in DMEM supplemented with 10% FBS, 1% Pen-Strep, 1% non-essential amino acids, 1% glutamine, and 1% HEPES. Assay setup took place after allowing cells to adhere for 48 h. Compounds dissolved in water were serially diluted in dosing buffer containing 10 μg/mL digitonin. Media was aspirated from the cells, and 50 μL buffer with compound was added in triplicate. After 30 min at 37° C., buffer was aspirated and replaced with 100 μL media. Cells were incubated for 20 h at 37° C., 5% CO2. IFN-beta expression and activation of the interferon regulatory factor (IRF) were measured based on luciferase and alkaline phosphatase reporter activity, respectively. Cell viability was determined in parallel.

CT26 colon carcinoma [2] = assay: CT26 mouse colon carcinoma in vivo efficacy study, intratumoral dosing; conditions: for Cure Rate (TV < 10 mm^3) / Treatment Failure (TV > 2000 mm^3): 100 μg intratumorally, 3 times, three days apart, BALB/c mice
Protocol: (§1) The in vivo antitumoral activity of compounds of Formula (I) were studied in the mouse CT26 colon carcinoma model. 10 female 9-week old BALB/c mice/group were implanted subcutaneously with 3×10^5 cells on the flank. Caliper measurements to assess the tumor volume (TV) and body weight measurements were performed daily for the first 8 days and biweekly thereafter until the end of the study. Dosing started when the tumor volumes reached a size of 100 mm^3. The compounds of Formula (I) were tested in two separate studies with their respective vehicle control. Compounds of Formula (I) were dosed 3 times, three days apart, intratumorally at either 25 or 100 μg. The human endpoint is predefined as a TV of 2000 mm^3.

CT26 colon carcinoma [3] = assay: CT26 mouse colon carcinoma study, intratumoral or subcutaneous administration; assay type: in vivo
Protocol: as §1
The in vivo antitumoral activity of compounds of Formula (I) after intratumoral of subcutaneous administration was studied in the mouse CT26 colon carcinoma model. The study was performed as in the first paragraph of Example C. Compounds of Formula (I) were dosed 2 or 3 times, three days apart (q3d) or 7 days apart (qw), intratumorally at either […] or subcutaneously at either 1 or 4 mg/kg.

CT26 colon carcinoma [4] = assay: CT26 mouse colon carcinoma combination study with anti-CTLA-4 (clone 9H10); assay type: in vivo
Protocol: as §1
The in vivo antitumoral activity of compounds of Formula (I) in combination with the immune checkpoint inhibitor anti-CTLA-4 (clone 9H10) was studied in the mouse CT26 colon carcinoma model. The study was performed as described in the first paragraph of Example C.

[5] = alkaline phosphatase reporter, read-out: EC50 [μM] IRF reporter
[6] = luciferase reporter, read-out: EC50 [μM] IRN-β reporter
[7] = EC50 [μM] IRF reporter, alkaline phosphatase reporter
[8] = EC50 [μM] IRN-β reporter, luciferase reporter
[9] = three times subcutaneously at 4 mg/kg

Compound	EC50 [1, 5] [µM]	EC50 [1, 6] [µM]	EC50 [1, 7] [µM]	EC50 [1, 8] [µM]	further results
Nc1ncnc2c1ncn2[C@H]1[C@H](O)[C@@H]2O[P@@](=O)([S][Na])OC[C@H]3O[C@@H](n4cnc5c(=O)[nH]cnc54)[C@H](F)[C@@H]3OP(=O)(O)OC[C@@]23C[C@H]13 [Compound 1-20b]			< 0.25	< 0.25	Cure Rate (TV < 10 mm^3) (CT26 colon carcinoma [2]): 50%; Treatment Failure (TV > 2000 mm^3) (CT26 colon carcinoma [2]): 50%
Nc1nc2c(ncn2C2OC34COC2C3OP(=O)(O)OCC23CC2C(n2cnc5c(N)ncnc52)C(O)C3OP(=O)(S)OC4)c(=O)[nH]1 (centres unmarked) [Compound 1-21b]	< 0.25	< 0.25			Cure Rate (TV < 10 mm^3) (CT26 colon carcinoma [2]): 50%; Treatment Failure (TV > 2000 mm^3) (CT26 colon carcinoma [2]): 50%
Nc1nc2c(ncn2[C@@H]2O[C@@H]3CO[P@](=O)([S][Na])O[C@H]4[C@@H](O)[C@H](n5cnc6c(N)ncnc65)[C@H]5C[C@]54COP(=O)([O-])O[C@@H]2[C@@H]3F)c(=O)[nH]1.[Na+] [Compound 1-22b]	< 0.25	< 0.25			Cure Rate (TV < 10 mm^3) (CT26 colon carcinoma [2]): 56%; Treatment Failure (TV > 2000 mm^3) (CT26 colon carcinoma [2]): 44%
Nc1nc2c(nnn2[C@@H]2O[C@@H]3CO[P@@](=O)([S][Na])O[C@H]4[C@@H](O)[C@H](n5cnc6c(N)ncnc65)[C@H]5C[C@@]54COP(=O)(O)O[C@@H]2[C@@H]3O)c(=O)[nH]1 [Compound 1-34b]			0.25 to 100	0.25 to 100	
CO[C@H]1[C@H]2OP(=O)(O)OC[C@]34C[C@@H]3[C@@H](n3cnc5c(N)ncnc53)[C@H](O)[C@@H]4O[P@@](=O)(S)OC[C@H]1O[C@H]2n1nnc2c(=O)[nH]c(N)nc21 [Compound 1-35b]	< 0.25	0.25 to 100			
Nc1nc2c(ncn2[C@H]2[C@@H]3OP(=O)(O)OC[C@]45C[C@@H]4[C@@H](n4cnc6c(N)ncnc64)[C@H](O)[C@@H]5O[P@](=O)([S][Na])OC[C@@]4(C[C@H]24)[C@H]3O)c(=O)[nH]1 [Compound 1-37]			0.25 to 100	> 100	
Nc1nc2c(ncn2[C@H]2[C@H](O)[C@@H]3OP(=O)(O)OC[C@]45C[C@@H]4[C@@H](n4cnc6c(N)ncnc64)[C@H](O)[C@@H]5O[P@](=O)([S][Na])OC[C@@]34C[C@H]24)c(=O)[nH]1 [Compound 1-38a]			> 100	> 100	
Nc1nc2c(ncn2[C@H]2[C@H](O)[C@@H]3OP(=O)(O)OC[C@]45C[C@@H]4[C@@H](n4cnc6c(N)ncnc64)[C@H](O)[C@@H]5O[P@@](=O)([S][Na])OC[C@@]34C[C@H]24)c(=O)[nH]1 [Compound 1-38b]			> 100	> 100	
COC1C2COP(=O)(S)OC3C(COP(=O)(S)OC1C(c1snc4c(=O)[nH]c(N)nc14)O2)OC(n1cnc2c(N)ncnc21)C3F (centres unmarked) [Compound 1-48c]	< 0.25	0.25 to 100			
COC1C2COP(=O)(S)OC3C(COP(=O)(S)OC1C(c1snc4c(=O)[nH]c(N)nc14)O2)OC(n1cnc2c(N)ncnc21)C3F (centres unmarked) [Compound 1-48d]	< 0.25				
CO[C@H]1[C@H]2OP(=O)(O)OC[C@]34C[C@@H]3[C@@H](n3cnc5c(N)ncnc53)[C@H](O)[C@@H]4O[P@@](=O)([S][Na])OC[C@H]1O[C@H]2n1cnc2c(=O)[nH]c(N)nc21 [Compound 10-b]					animals with complete tumor suppression (CT26 colon carcinoma [3]; dosed intratumorally at 100 μg): 4/10; animals with complete tumor suppression (CT26 colon carcinoma [3]; [9]): 1/10; delay of tumor growth (CT26 colon carcinoma [3]; [9]): further delay in tumor growth; delay of tumor growth compared to the vehicle group (CT26 colon carcinoma [3]; two subcutaneous administrations at 4 mg/kg): approx. 8 days; Complete Tumor Suppression (TV < 10 mm^3) (CT26 colon carcinoma [4]; 25 μg, IT/3 × q3d): 0; Treatment Failure (TV > 2000 mm^3) (CT26 colon carcinoma [4]; 25 μg, IT/3 × q3d): 100; delay of tumor growth (CT26 colon carcinoma [4]; three IT doses of 25 g): approx. 8 days

The next lines start with results.

EC50 [1, 5] [µM]	EC50 [1, 6] [µM]	Compound	EC50 [1, 7] [µM]	EC50 [1, 8] [µM]	further results
< 0.25	< 0.25	CO[C@H]1[C@H]2OP(=O)([O-])OC[C@@]34C[C@@H]3[C@@H](n3cnc5c(N)ncnc53)[C@H](O)[C@@H]4OP(=O)([O-])OC[C@H]1O[C@H]2n1cnc2c(=O)[nH]c(N)nc21.[Na+].[Na+] [Compound 1-1]			Cure Rate (TV < 10 mm^3) (CT26 colon carcinoma [2]): 40%; Treatment Failure (TV > 2000 mm^3) (CT26 colon carcinoma [2]): 40%; tumor-free animals at the end of the study (CT26 colon carcinoma [2]; three intratumoral doses of 100 g, 10 mice/group): 4 out of 10
< 0.25	0.25 to 100	CO[C@H]1[C@H]2OP(=O)(O)OC[C@@]34CO[C@@H]([C@H](n5cnc6c(N)ncnc65)O3)[C@@H]4OP(=O)(O)OC[C@H]1O[C@H]2c1snc2c(=O)[nH]c(N)nc12 [Compound 1-49]			
< 0.25	0.25 to 100	Nc1nc2c(ncn2C2OC34COC2C3OP(=O)(O)OCC2OC(c3snc5c(N)ncnc35)CC2OP(=O)(O)OC4)c(=O)[nH]1 (centres unmarked) [Compound 1-52]			
